From US20040072770A1, “Methods for specifically inhibiting histone deacetylase-7 and 8” (priority 2002, published 2004)

Columns and labels:
HDAC-6 = target: T1, HDAC-6 (Homo sapiens, UniProt Q9UBN7); assay: Enzyme inhibitory activity, HD6; format: biochemical; settings: read-out: IC50 HD 6
T1 sequence (Q9UBN7 1-1215): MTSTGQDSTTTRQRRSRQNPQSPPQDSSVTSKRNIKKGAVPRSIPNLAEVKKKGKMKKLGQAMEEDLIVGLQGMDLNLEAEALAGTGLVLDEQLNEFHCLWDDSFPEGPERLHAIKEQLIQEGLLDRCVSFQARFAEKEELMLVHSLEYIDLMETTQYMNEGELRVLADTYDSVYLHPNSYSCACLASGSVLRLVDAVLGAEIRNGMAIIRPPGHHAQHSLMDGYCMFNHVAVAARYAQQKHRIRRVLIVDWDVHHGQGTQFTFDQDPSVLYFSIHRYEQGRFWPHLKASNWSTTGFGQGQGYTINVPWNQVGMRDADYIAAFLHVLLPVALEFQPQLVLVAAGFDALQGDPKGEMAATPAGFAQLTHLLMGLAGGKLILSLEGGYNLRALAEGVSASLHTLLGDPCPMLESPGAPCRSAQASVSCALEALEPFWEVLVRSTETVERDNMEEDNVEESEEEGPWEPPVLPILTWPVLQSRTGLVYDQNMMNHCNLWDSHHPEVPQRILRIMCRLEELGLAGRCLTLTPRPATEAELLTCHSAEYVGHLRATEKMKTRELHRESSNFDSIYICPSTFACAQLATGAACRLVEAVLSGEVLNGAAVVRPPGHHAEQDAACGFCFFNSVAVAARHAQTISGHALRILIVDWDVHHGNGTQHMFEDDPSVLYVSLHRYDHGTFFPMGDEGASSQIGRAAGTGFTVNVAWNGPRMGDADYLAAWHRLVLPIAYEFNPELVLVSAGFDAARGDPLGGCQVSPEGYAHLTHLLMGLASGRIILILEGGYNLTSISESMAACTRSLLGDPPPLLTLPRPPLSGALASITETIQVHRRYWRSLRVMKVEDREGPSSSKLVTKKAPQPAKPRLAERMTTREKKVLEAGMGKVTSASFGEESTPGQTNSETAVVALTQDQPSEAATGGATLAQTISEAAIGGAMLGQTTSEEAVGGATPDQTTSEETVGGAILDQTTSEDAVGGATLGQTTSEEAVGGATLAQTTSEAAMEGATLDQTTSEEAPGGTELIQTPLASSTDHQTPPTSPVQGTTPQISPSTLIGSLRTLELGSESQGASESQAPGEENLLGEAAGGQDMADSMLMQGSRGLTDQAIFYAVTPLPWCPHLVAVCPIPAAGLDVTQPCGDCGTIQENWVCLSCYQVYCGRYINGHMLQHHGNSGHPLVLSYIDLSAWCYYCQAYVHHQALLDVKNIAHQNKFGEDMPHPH

[1] = test system: colon cancer cells HCT116; assay: MTT assay, HCT116; format: cell-based, human; settings: Homo sapiens, HCT-116; 72 hours
Experimental: (§1) Effects of HDAC isotype-specific small molecule inhibitors on growth inhibition of various human cancer cells (from ATCC) in vitro were determined by MTT assays. Briefly, cells seeded in 96-well plates were incubated for 72 hours at 37° C. in a 5% CO2 incubator. MTT (Sigma) was added at a final concentration of 0.5 mg/ml and incubated with the cells for 4 hours before an equal volume of solubilization buffer (50% N,N-dimethylformamide, 20% SDS, pH 4.7) was added onto cultured cells. After overnight incubation, solubilized dye was quantified by colorimetric reading at […] using a reference at 630 nM. OD values were converted to cell numbers according to a standard growth curve of the relevant cell line. The concentration which reduces cell numbers to 50% of those of DMSO-treated cells is determined as MTT IC50. In Table 4, IC50s of several HDAC7 or HDAC8 inhibitors in MTT assays in various human cancer cell lines were listed. They include colon cancer cells HCT116 and SW48, lung cancer cells A549 and H446, breast cancer cells MCF-7 and MDAmb231, a prostate cancer cell line Du145 and a bladder cancer cell line T24.

[2] = test system: colon carcinoma cells HCT116 tumors; assay: Tumor growth in a mouse model, HCT116; format: in vivo; settings: intraperitoneal, BALB/c nude mice, vs vehicle-treated
Experimental: Female BALB/c nude mice are obtained from Charles River Laboratories (Charles River, N.Y.) and used at age 8-10 weeks. Human tumor cells (2×10^6, colon carcinoma cells HCT116 or SW48, lung carcinoma cells A549, pancreatic carcinoma Panc-1, ovarian carcinoma cells ES2, or prostate carcinoma cells Du145) are injected subcutaneously in the animal's flank and allowed to form solid tumors. Tumor fragments are serially passaged a minimum of three times, then approximately 30 mg tumor fragments are implanted subcutaneously through a small surgical incision under general anaesthesia. Small molecule inhibitor administration by intraperotineal or oral administration was initiated when the tumors reached a volume of 100 mm^3. For intraperotineal administration, small molecule inhibitors of HDAC-7, HDAC-8 or both, or in combination with small molecule inhibitors of HDAC-1 (20-60 mg/kg body weight/day) are dissolved in 100% DMSO and administered daily by injection. For oral administration, small molecule inhibitors of HDAC (60 mg/kg body weight) are dissolved in saline acidified with 0.2 N HCl. Tumor volumes are monitored twice weekly up to 20 days. Each experimental group contains at least 6-8 animals. Percentage inhibition is calculated using volume of tumor from vehicle-treated mice as controls. Shown in Table 4, inhibition of HDAC7 or HDAC8 in combination with HDAC1 leads to inhibition of growth of various human tumors in vivo.

[3] = test system: breast cancer cells MDAmb231; assay: MTT assay, MDAmb231; format: cell-based; settings: Homo sapiens, MDA-MB-231; 72 hours
Experimental: as §1

lung cancer cells A549 = assay: MTT assay, A549; format: cell-based; settings: Homo sapiens, 72 hours, read-out: IC50 A 549 (MTT)
Experimental: as §1

[4] = test system: prostate cancer cell line Du145; assay: MTT assay, Du145; format: cell-based; settings: Homo sapiens, DU-145; 72 hours
Experimental: as §1

[5] = test system: breast cancer cells MCF-7; assay: MTT assay, MCF-7; format: cell-based; settings: Homo sapiens, MCF7; 72 hours
Experimental: as §1

colon cancer cells SW48 = assay: MTT assay, SW48; format: cell-based; settings: Homo sapiens, 72 hours, read-out: MTT IC50 SW 48
Experimental: as §1

[6] = test system: bladder cancer cell line T24; assay: MTT assay, T24; format: cell-based; settings: Homo sapiens; 72 hours; read-out: MTT IC50 T 24
Experimental: as §1

HDAC-4 = HDAC-4 (Homo sapiens, UniProt P56524); assay: Enzyme inhibitory activity, HD4; format: biochemical
HDAC-4, sequence (P56524 whole entry): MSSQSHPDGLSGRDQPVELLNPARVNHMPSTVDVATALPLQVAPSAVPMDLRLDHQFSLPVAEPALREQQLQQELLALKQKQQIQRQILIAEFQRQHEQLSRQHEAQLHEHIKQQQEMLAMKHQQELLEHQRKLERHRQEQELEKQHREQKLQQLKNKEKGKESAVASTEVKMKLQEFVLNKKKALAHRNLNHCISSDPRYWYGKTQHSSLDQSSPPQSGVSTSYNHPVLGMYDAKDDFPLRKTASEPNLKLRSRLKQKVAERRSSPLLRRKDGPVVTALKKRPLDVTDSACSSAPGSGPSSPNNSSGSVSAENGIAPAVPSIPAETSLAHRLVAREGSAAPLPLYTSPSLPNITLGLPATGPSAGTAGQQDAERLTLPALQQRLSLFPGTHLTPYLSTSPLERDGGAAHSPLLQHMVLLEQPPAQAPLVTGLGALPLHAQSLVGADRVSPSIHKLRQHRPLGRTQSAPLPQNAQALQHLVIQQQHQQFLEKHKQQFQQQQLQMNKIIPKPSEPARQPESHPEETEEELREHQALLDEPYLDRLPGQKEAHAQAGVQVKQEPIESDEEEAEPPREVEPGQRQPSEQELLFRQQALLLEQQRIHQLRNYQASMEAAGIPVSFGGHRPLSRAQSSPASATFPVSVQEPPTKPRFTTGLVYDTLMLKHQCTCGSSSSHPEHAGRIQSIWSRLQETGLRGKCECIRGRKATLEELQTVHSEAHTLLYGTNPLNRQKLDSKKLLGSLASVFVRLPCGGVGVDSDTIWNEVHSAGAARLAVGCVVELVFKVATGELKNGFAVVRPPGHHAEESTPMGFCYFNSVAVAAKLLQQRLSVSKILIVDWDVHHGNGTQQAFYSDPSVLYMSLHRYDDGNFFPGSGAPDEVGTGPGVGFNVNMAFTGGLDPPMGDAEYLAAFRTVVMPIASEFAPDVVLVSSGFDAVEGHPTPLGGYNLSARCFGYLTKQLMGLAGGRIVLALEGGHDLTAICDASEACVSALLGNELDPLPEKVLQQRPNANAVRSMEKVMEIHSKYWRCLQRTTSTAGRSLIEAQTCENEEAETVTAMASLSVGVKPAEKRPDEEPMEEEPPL

HDAC-1 = HDAC-1 (Homo sapiens, UniProt Q13547); assay: Enzyme inhibitory activity, HD1; format: biochemical; settings: read-out: IC50 HD 1
HDAC-1, sequence (Q13547 whole entry): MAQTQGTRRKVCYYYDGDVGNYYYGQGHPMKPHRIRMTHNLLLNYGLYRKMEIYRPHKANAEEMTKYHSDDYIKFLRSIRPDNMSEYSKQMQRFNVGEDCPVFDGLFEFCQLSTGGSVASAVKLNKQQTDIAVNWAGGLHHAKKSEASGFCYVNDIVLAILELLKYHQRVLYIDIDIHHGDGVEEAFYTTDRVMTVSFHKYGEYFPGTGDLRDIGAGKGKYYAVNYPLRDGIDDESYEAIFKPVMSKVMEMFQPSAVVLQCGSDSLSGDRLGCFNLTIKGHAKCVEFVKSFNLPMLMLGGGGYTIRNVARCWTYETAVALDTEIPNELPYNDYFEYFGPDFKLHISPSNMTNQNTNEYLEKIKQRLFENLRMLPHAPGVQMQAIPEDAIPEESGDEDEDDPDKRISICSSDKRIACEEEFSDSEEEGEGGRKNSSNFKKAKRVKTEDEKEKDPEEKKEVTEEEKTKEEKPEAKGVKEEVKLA

[7] = (20,I): 20 mg/kg body weight/day

`Cc1ccc(S(=O)(=O)Nc2ccc(/C=C/C(=O)Nc3ccccc3N)cc2)cc1` [Compound 5, N-(2-Aminophenyl)-3-[4-(4-methylbenzenesulfonylamino)-phenyl]-acrylamide] was tested, and the IC50 (HDAC-6) was greater than 50000 nM, the IC50 [1] was 4000 nM and the “% of Inhibition of Tumor Growth in Vivo HCT116” value (“% of Inhibition of Tumor Growth” for short) [2, 7] was 48(20,I) %. For the same compound, the “% of Inhibition of Tumor Growth” value ([2]; (40,I): 40 mg/kg body weight/day) was 55(40,I) %, the IC50 [3] was 2000 nM and the IC50 (lung cancer cells A549) was 8000 nM. It also gave an IC50 [4] of 2000 nM, an IC50 [5] of 6000 nM and an IC50 (colon cancer cells SW48) of 10000 nM. For the same compound, the IC50 [6] was 8000 nM.

In the case of `Nc1ccccc1NC(=O)c1ccc(CSc2nc3ccccc3[nH]2)cc1` [Compound 16, N-(2-Amino-phenyl)-4-(1H-benzimidazol-2-ylsulfanylmethyl)-benzamide], the IC50 (HDAC-6) is reported as greater than 50000 nM, the IC50 [1] is reported as 200 nM and the “% of Inhibition of Tumor Growth” value [2, 7] is reported as 61(20,I) %. For the same compound, the IC50 [3] was 1000 nM, the IC50 (lung cancer cells A549) was 2000 nM and the IC50 (HDAC-4) was 29000 nM. It also gave an IC50 [4] of 700 nM, an IC50 (HDAC-1) of 300 nM and an IC50 [5] of 3000 nM. For the same compound, the IC50 (colon cancer cells SW48) was 2000 nM and the IC50 [6] was 1000 nM.

With `COc1ccc(NCc2ccc(C(=O)Nc3ccccc3N)cc2)cc1OC` [Compound 17, N-(2-Aminophenyl)-4-[(3,4-dimethoxyphenylamino)-methyl]-benzamide] the IC50 (HDAC-6) was greater than 50000 nM, the IC50 [1] was 400 nM and the “% of Inhibition of Tumor Growth” value [2, 7] was 77(20,I) %. For the same compound, the IC50 [3] was 2000 nM, the IC50 (lung cancer cells A549) was 3000 nM and the IC50 (HDAC-4) was greater than 50000 nM. The IC50 [4] was 2000 nM, the IC50 (HDAC-1) was 2000 nM and the IC50 [5] was 3000 nM. The IC50 (colon cancer cells SW48) was 2000 nM and the IC50 [6] was 2000 nM.

In the case of `COc1ccc(-c2ccnc(NCc3ccc(C(=O)Nc4ccccc4N)cc3)n2)cc1OC` [Compound 21, N-(2-Amino-phenyl)-4-{[4-(3,4-dimethoxy-phenyl)-pyrimidin-2-ylamino]-methyl}-benzamide], the IC50 (HDAC-6) is reported as greater than 50000 nM, the IC50 [1] is reported as 100 nM and the IC50 [3] is reported as 500 nM. For the same compound, the IC50 (lung cancer cells A549) was 300 nM, the IC50 (HDAC-4) was greater than 50000 nM and the IC50 [4] was 500 nM. For the same compound, the IC50 (HDAC-1) was 4000 nM, the IC50 [5] was 700 nM and the IC50 (colon cancer cells SW48) was 800 nM.
